For this experiment, the target named is T1, Androgen Receptor (AR) protein (Homo sapiens, UniProt P10275, T878A).
T1 construct: endogenous in cells; host or cells: LNCaP
The experiment can be described thus: Androgen Receptor (AR) protein degradation assay in LNCaP cells, western blotting. In kind it is cell-based. The conditions noted are these: 20 h; for inhibition at 0.01 µM: 0.01 μM compound; for inhibition at 0.1 µM: 0.1 μM compound; for inhibition at 1 µM: 1 μM compound. Put shortly:
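AR protein level was detected by western blot (ECL) against GAPDH or β-actin controls, with 8 μg lysate protein loaded per lane after BCA quantification. Lysates came from LNCaP cells exposed to test compound for 20 h, following 3 days of growth in RPMI/10% FBS.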

One may read the inhibition as the relative decrease from the control value, in per cent. Lower therefore signals a response near the control.

The structures appear in SMILES notation.

T1 sequence (P10275 whole entry T878A): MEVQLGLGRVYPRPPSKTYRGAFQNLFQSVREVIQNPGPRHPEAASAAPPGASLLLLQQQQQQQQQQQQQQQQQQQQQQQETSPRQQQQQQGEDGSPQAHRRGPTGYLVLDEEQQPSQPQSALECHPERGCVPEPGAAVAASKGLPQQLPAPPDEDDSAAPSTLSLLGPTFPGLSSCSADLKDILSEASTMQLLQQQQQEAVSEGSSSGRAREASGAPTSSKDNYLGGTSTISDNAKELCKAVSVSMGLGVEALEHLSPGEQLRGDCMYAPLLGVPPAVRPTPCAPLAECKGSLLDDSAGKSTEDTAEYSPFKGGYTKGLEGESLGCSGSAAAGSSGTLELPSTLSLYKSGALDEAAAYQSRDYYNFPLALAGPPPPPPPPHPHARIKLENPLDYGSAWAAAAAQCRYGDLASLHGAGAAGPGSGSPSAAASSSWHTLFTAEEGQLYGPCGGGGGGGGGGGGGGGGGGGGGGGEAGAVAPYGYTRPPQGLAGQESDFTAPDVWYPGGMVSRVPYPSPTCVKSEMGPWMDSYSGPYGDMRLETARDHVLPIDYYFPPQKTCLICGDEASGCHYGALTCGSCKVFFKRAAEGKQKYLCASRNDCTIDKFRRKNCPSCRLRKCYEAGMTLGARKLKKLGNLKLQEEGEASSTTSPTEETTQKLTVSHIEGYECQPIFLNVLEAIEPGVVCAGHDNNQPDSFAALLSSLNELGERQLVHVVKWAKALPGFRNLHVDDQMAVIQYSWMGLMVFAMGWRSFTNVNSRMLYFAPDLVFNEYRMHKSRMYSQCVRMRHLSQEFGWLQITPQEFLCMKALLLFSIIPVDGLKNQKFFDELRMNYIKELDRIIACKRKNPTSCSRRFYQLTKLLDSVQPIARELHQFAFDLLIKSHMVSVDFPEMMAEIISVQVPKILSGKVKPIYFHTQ
T1 sequence (Q96SW2 whole entry partner): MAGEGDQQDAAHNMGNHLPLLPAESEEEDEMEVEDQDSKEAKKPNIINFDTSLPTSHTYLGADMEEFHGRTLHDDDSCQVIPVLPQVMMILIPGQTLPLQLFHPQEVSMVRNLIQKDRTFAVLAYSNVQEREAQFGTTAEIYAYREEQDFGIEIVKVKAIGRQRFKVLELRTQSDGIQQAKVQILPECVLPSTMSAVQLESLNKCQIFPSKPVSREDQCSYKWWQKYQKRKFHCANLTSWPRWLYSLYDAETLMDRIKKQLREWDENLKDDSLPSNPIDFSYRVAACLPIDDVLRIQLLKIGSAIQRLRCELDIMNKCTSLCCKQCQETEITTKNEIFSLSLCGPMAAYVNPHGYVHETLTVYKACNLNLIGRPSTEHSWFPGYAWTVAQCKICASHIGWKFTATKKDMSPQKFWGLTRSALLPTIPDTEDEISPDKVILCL

For the molecule `N#Cc1ccc(N2CCC(C(=O)Nc3ccc(N4CCC(CN5CCN(C6CN(c7ccc8c(c7)C(=O)N(C7CCC(=O)NC7=O)C8=O)C6)CC5)CC4)cn3)CC2)cc1C(F)(F)F` (stereo not drawn) [Example 35, 1-(4-cyano-3-(trifluoromethyl)phenyl)-N-(5-(4-((4-(1-(2-(2,6-dioxopiperidin-3-yl)-1,3-dioxoisoindolin-5-yl)azetidin-3-yl)piperazin-1-yl)methyl)piperidin-1-yl)pyridin-2-yl)piperidine-4-carboxamide], at 0.01 µM the inhibition was 71%, 0.1 µM produced 97% inhibition and the inhibition at 1 µM is 95%.

Regarding `N#Cc1ccc(N2CCC(C(=O)Nc3ccc(N4CC(CN5CCN(C6CN(c7ccc8c(c7)C(=O)N(C7CCC(=O)NC7=O)C8=O)C6)CC5)C4)cn3)CC2)cc1C(F)(F)F` (stereo not drawn) [Example 36, 1-(4-cyano-3-(trifluoromethyl)phenyl)-N-(5-(3-((4-(1-(2-(2,6-dioxopiperidin-3-yl)-1,3-dioxoisoindolin-5-yl)azetidin-3-yl)piperazin-1-yl)methyl)azetidin-1-yl)pyridin-2-yl)piperidine-4-carboxamide], the inhibition at 0.01 µM came to 66%, the inhibition at 0.1 µM worked out at 94% and 1 µM produced 94% inhibition.

Molecule `N#Cc1ccc(N2CCC(C(=O)Nc3ccc(N4CCC(CN5CCN(C[C@@H]6CCN(c7ccc8c(n7)CN(C7CCC(=O)NC7=O)C8=O)C6)CC5)CC4)cn3)CC2)cc1C(F)(F)F` (stereo partly drawn) [Example 37, 1-(4-cyano-3-(trifluoromethyl)phenyl)-N-(5-(4-((4-(((3S)-1-(6-(2,6-dioxopiperidin-3-yl)-5-oxo-6,7-dihydro-5H-pyrrolo[3,4-b]pyridin-2-yl)pyrrolidin-3-yl)methyl)piperazin-1-yl)methyl)piperidin-1-yl)pyridin-2-yl)piperidine-4-carboxamide] had an inhibition at 0.01 µM of 51%, an inhibition at 0.1 µM of 93% and an inhibition at 1 µM of 90%.

The molecule `N#Cc1ccc(N2CCC(C(=O)Nc3ccc(N4CCC(CN5CCN(C[C@@H]6CCN(c7cc8c(cc7F)C(=O)N(C7CCC(=O)NC7=O)C8=O)C6)CC5)CC4)cn3)CC2)cc1C(F)(F)F` (stereo partly drawn) [Example 38, 1-(4-cyano-3-(trifluoromethyl)phenyl)-N-(5-(4-((4-(((3S)-1-(2-(2,6-dioxopiperidin-3-yl)-6-fluoro-1,3-dioxoisoindolin-5-yl)pyrrolidin-3-yl)methyl)piperazin-1-yl)methyl)piperidin-1-yl)pyridin-2-yl)piperidine-4-carboxamide] came in with an inhibition at 0.01 µM of 44%, an inhibition at 0.1 µM of 93% and an inhibition at 1 µM of 97%.

Molecule `N#Cc1ccc(N2CCC(C(=O)Nc3ccc(N4CCC(CN5CCN(C[C@H]6CCN(c7ccc8c(n7)CN(C7CCC(=O)NC7=O)C8=O)C6)CC5)CC4)cn3)CC2)cc1C(F)(F)F` (stereo partly drawn) [Example 39, 1-(4-cyano-3-(trifluoromethyl)phenyl)-N-(5-(4-((4-(((3R)-1-(6-(2,6-dioxopiperidin-3-yl)-5-oxo-6,7-dihydro-5H-pyrrolo[3,4-b]pyridin-2-yl)pyrrolidin-3-yl)methyl)piperazin-1-yl)methyl)piperidin-1-yl)pyridin-2-yl)piperidine-4-carboxamide] had an inhibition at 0.01 µM of 80%, an inhibition at 0.1 µM of 98% and an inhibition at 1 µM of 95%.

In turn, `C[C@@H]1CN(CC2CCN(c3ccc(NC(=O)C4CCN(c5ccc(C#N)c(C(F)(F)F)c5)CC4)nc3)CC2)CCN1C1CN(c2ccc3c(c2)C(=O)N(C2CCC(=O)NC2=O)C3=O)C1` (stereo partly drawn) [Example 40, 1-(4-cyano-3-(trifluoromethyl)phenyl)-N-(5-(4-(((3R)-4-(1-(2-(2,6-dioxopiperidin-3-yl)-1,3-dioxoisoindolin-5-yl)azetidin-3-yl)-3-methylpiperazin-1-yl)methyl)piperidin-1-yl)pyridin-2-yl)piperidine-4-carboxamide] yielded an inhibition at 0.01 µM of 43%, an inhibition at 0.1 µM of 94% and an inhibition at 1 µM of 94%.

In turn, `C[C@@H]1CN(C2CN(c3ccc4c(c3)C(=O)N(C3CCC(=O)NC3=O)C4=O)C2)CCN1CC1CCN(c2ccc(NC(=O)C3CCN(c4ccc(C#N)c(C(F)(F)F)c4)CC3)nc2)CC1` (stereo partly drawn) [Example 41, 1-(4-cyano-3-(trifluoromethyl)phenyl)-N-(5-(4-(((2R)-4-(1-(2-(2,6-dioxopiperidin-3-yl)-1,3-dioxoisoindolin-5-yl)azetidin-3-yl)-2-methylpiperazin-1-yl)methyl)piperidin-1-yl)pyridin-2-yl)piperidine-4-carboxamide] had an inhibition at 0.01 µM of 62%, an inhibition at 0.1 µM of 93% and an inhibition at 1 µM of 86%.

Molecule `C[C@@H]1CN(C2CCN(c3ccc4c(c3)C(=O)N(C3CCC(=O)NC3=O)C4=O)CC2)CCN1CC1CCN(c2ccc(NC(=O)C3CCN(c4ccc(C#N)c(C(F)(F)F)c4)CC3)nc2)CC1` (stereo partly drawn) [Example 42, 1-(4-cyano-3-(trifluoromethyl)phenyl)-N-(5-(4-(((2R)-4-(1-(2-(2,6-dioxopiperidin-3-yl)-1,3-dioxoisoindolin-5-yl)piperidin-4-yl)-2-methylpiperazin-1-yl)methyl)piperidin-1-yl)pyridin-2-yl)piperidine-4-carboxamide] returned an inhibition at 0.01 µM of 65%, an inhibition at 0.1 µM of 96% and an inhibition at 1 µM of 94%.

For `C[C@@H]1CN(C2CCN(c3ccc4c(n3)CN(C3CCC(=O)NC3=O)C4=O)CC2)CCN1CC1CCN(c2ccc(NC(=O)C3CCN(c4ccc(C#N)c(C(F)(F)F)c4)CC3)nc2)CC1` (stereo partly drawn) [Example 43, 1-(4-cyano-3-(trifluoromethyl)phenyl)-N-(5-(4-(((2R)-4-(1-(6-(2,6-dioxopiperidin-3-yl)-5-oxo-6,7-dihydro-5H-pyrrolo[3,4-b]pyridin-2-yl)piperidin-4-yl)-2-methylpiperazin-1-yl)methyl)piperidin-1-yl)pyridin-2-yl)piperidine-4-carboxamide], the inhibition at 0.01 µM came to 68%, the inhibition at 0.1 µM was found to be 94% and the inhibition at 1 µM is 83%.

Turning to `C[C@@H]1CN(CC2CCN(c3ccc4c(n3)CN(C3CCC(=O)NC3=O)C4=O)CC2)CCN1CC1CCN(c2ccc(NC(=O)C3CCN(c4ccc(C#N)c(C(F)(F)F)c4)CC3)nc2)CC1` (stereo partly drawn) [Example 44, 1-(4-cyano-3-(trifluoromethyl)phenyl)-N-(5-(4-(((2R)-4-((1-(6-(2,6-dioxopiperidin-3-yl)-5-oxo-6,7-dihydro-5H-pyrrolo[3,4-b]pyridin-2-yl)piperidin-4-yl)methyl)-2-methylpiperazin-1-yl)methyl)piperidin-1-yl)pyridin-2-yl)piperidine-4-carboxamide], the inhibition at 0.01 µM worked out at 80%, 0.1 µM produced 98% inhibition and at 1 µM the inhibition was 93%.

`C[C@H]1CN(C2CCN(c3ccc4c(n3)CN(C3CCC(=O)NC3=O)C4=O)CC2)CCN1CC1CCN(c2ccc(NC(=O)C3CCN(c4ccc(C#N)c(C(F)(F)F)c4)CC3)nc2)CC1` (stereo partly drawn) [Example 45, 1-(4-cyano-3-(trifluoromethyl)phenyl)-N-(5-(4-(((2S)-4-(1-(6-(2,6-dioxopiperidin-3-yl)-5-oxo-6,7-dihydro-5H-pyrrolo[3,4-b]pyridin-2-yl)piperidin-4-yl)-2-methylpiperazin-1-yl)methyl)piperidin-1-yl)pyridin-2-yl)piperidine-4-carboxamide] returned an inhibition at 0.01 µM of 66%, an inhibition at 0.1 µM of 95% and an inhibition at 1 µM of 87%.

For the molecule `C[C@H]1CN(CC2CCN(c3ccc4c(n3)CN(C3CCC(=O)NC3=O)C4=O)CC2)CCN1CC1CCN(c2ccc(NC(=O)C3CCN(c4ccc(C#N)c(C(F)(F)F)c4)CC3)nc2)CC1` (stereo partly drawn) [Example 46, 1-(4-cyano-3-(trifluoromethyl)phenyl)-N-(5-(4-(((2S)-4-((1-(6-(2,6-dioxopiperidin-3-yl)-5-oxo-6,7-dihydro-5H-pyrrolo[3,4-b]pyridin-2-yl)piperidin-4-yl)methyl)-2-methylpiperazin-1-yl)methyl)piperidin-1-yl)pyridin-2-yl)piperidine-4-carboxamide], the inhibition at 0.01 µM was 70%, at 0.1 µM the inhibition was 97% and testing at 1 µM gave an inhibition of 91%.

In the case of `C[C@@H]1CN(CC2CCN(c3ccc(NC(=O)C4CCN(c5ccc(C#N)c(C(F)(F)F)c5)CC4)nc3)CC2)CCN1CC1CCN(c2ccc3c(n2)CN(C2CCC(=O)NC2=O)C3=O)CC1` (stereo partly drawn) [Example 47, 1-(4-cyano-3-(trifluoromethyl)phenyl)-N-(5-(4-(((3R)-4-((1-(6-(2,6-dioxopiperidin-3-yl)-5-oxo-6,7-dihydro-5H-pyrrolo[3,4-b]pyridin-2-yl)piperidin-4-yl)methyl)-3-methylpiperazin-1-yl)methyl)piperidin-1-yl)pyridin-2-yl)piperidine-4-carboxamide], the inhibition at 0.01 µM came out at 65%, at 0.1 µM the inhibition was 95% and the inhibition at 1 µM came to 89%.

As for `C[C@H]1CN(CC2CCN(c3ccc(NC(=O)C4CCN(c5ccc(C#N)c(C(F)(F)F)c5)CC4)nc3)CC2)CCN1CC1CCN(c2ccc3c(n2)CN(C2CCC(=O)NC2=O)C3=O)CC1` (stereo partly drawn) [Example 48, 1-(4-cyano-3-(trifluoromethyl)phenyl)-N-(5-(4-(((3S)-4-((1-(6-(2,6-dioxopiperidin-3-yl)-5-oxo-6,7-dihydro-5H-pyrrolo[3,4-b]pyridin-2-yl)piperidin-4-yl)methyl)-3-methylpiperazin-1-yl)methyl)piperidin-1-yl)pyridin-2-yl)piperidine-4-carboxamide], at 0.01 µM the inhibition was 59%, the inhibition at 0.1 µM was determined as 94% and the inhibition at 1 µM worked out at 87%.

These data come from US12122763B2, “Substituted piperidines for androgen receptor degradation” (UBIX THERAPEUTICS, INC., priority 2020, dated 2024).
